Structures can show the parent of a compound that is named as a salt.
Columns and labels:
[1] = system: phospho-ERK in HCT-116 cells; test: HCT-116 cell pERK assay (AlphaScreen SureFire); assay type: cell-based; conditions: Homo sapiens; HCT-116 cells, B-Raf wild type, K-Ras mutation; 4 hours; read-out: IC50 reduction of phospho-ERK signal
Experimental: Examples of Formula I are tested against HCT-116 cells harboring wild type B-Raf and K-Ras mutation. The phospho-ERK activities are evaluated as described below.
HCT-116 cells (catalog #CCL-247) are obtained from the American Type Culture Collection (ATCC, Manassas, Va.). Briefly, cells are grown in McCoy's 5A supplemented with 10% characterized fetal bovine serum (Invitrogen, Carlsbad, Calif.), and 1% Penicillin/Streptomycin/L-Glutamine at 37 degrees Celsius, 5% CO2, and 95% humidity. Cells are allowed to expand until reaching 75-90% confluency at which point they are subcultured or harvested for assay use. HCT-116 cells suspended in complete media are added to 384-well tissue culture treated plates (3×10^5 cells/mL; 7,500 cells per well). The cells are incubated overnight at 37 degrees Celsius, 5% CO2, and 95% humidity. Next, test compound or DMSO diluted in complete media is added to the wells (0.25% final DMSO concentration). The plates are then incubated for 4 hours at 37 degrees Celsius, 5% CO2, and 95% humidity. Following compound incubation, the cells are lysed at 4° C. for 20 minutes with shaking Cell lysates are centrifuged and the supernatant is transferred to a new plate. An aliquot of each lysate is transferred to a white 384-well assay plate. Using the AlphaScreen SureFire pERK kit (Perkin-Elmer, Waltham, Mass.), an acceptor bead mixture is added to each well and incubated for 2 h at room temperature in the dark. A donor bead mixture is then added to each well and incubated for 2 h at room temperature in the dark. Plates are read using a Synergy2 plate reader (Biotek, Winooski, Vt.) in Plate Mode with Timing Control. Read: (F)1: excitation: 680/30 nm, emission: Plug. 2: Excitation: Plug, emission: 570/100 nm. Top mirror 635 nm. Data is analyzed using Prism software (Graphpad, San Diego, Calif.) to calculate IC50 values and Excel software (Microsoft, Redmond, Wash.) to calculate stimulation compared to control.

A375res cells [2] = system: A375res cells
Source text: (§1) A vemurafenib-resistant cell line is generated by chronic treatment of the human melanoma cell line A375 (ATCC) harboring the B-Raf V600E mutation with increasing concentrations PLX4720.

A375res cells [3] = test: Proliferation assay in vemurafenib-resistant A375res melanoma cells; conditions: Homo sapiens, 72 h, read-out: absolute IC50 values
Source text: as §1

[4] = system: phospho-ERK in A375 (B-Raf V600E) xenograft; test: A375 mouse xenograft pharmacodynamic assay (tumor pERK by ELISA); assay type: in vivo, mice; conditions: 2 h post dose, vs vehicle, read-out: Measured pERK inhibition 2 h post dose; for inhibition in vivo at 20 mg/kg: A-375, 20 mg/kg oral
Experimental: To evaluate the in vivo pharmacodynamic (PD) effects of compounds of Formula I, an A375 (B-Raf V600E) xenograft model is employed. Briefly, 10×10^6 A375 tumor cells (ATCC) are prepared in a 1:1 matrigel mix (0.2 mL total volume) and implanted by subcutaneous injection in hind leg of nude female mice. A total of 4 mice each for each dosing group are employed. Treatment is initiated with oral administration (gavage) of test compound or vehicle (20% captisol, 25 mM phosphate, pH2.0) in 0.2 mL volume when average tumor size reaches approximately 300 mg. After a fixed time interval, the tumors are harvested and the phospho-ERK levels are measured by ELISA (Enzyme-linked immunosorbent assay). Treated groups are compared to the vehicle control group to calculate % inhibition.

`Cc1cc(F)c(NC(=O)NCCC(C)(C)F)cc1-c1cc2cnc(NC=O)cc2nc1C` [Example 125, N-(3-(4-fluoro-5-(3-(3-fluoro-3-methylbutyl)ureido)-2-methylphenyl)-2-methyl-1,6-naphthyridin-7-yl)formamide hydrochloride] was tested, and the IC50 [1] was 2 to 96 nM, the “IC50 shift A375 to A375res” value (A375res cells [2]) was 0.5-4.9 fold and the IC50 (A375res cells [3]) was 9 to 504 nM.
For `CNc1cc2nc(C)c(-c3cc(NC(=O)NCCC4(C(F)(F)F)CC4)c(F)cc3C)cc2cn1` [Example 23, 1-(2-fluoro-4-methyl-5-(2-methyl-7-(methylamino)-1,6-naphthyridin-3-yl)phenyl)-3-(2-(1-(trifluoromethyl)cyclopropyl)ethyl)urea hydrochloride], the IC50 [1] was 2 to 96 nM, the “IC50 shift A375 to A375res” value (A375res cells [2]) was 0.5-4.9 fold and the IC50 (A375res cells [3]) was 9 to 504 nM.
`CNc1cc2nc(C)c(-c3cc(NC(=O)NC4CCOC(C)(C)C4)c(F)cc3C)cc2cn1` (stereo not drawn) [Example 20, 1-(2,2-dimethyltetrahydro-2H-pyran-4-yl)-3-(2-fluoro-4-methyl-5-(2-methyl-7-(methylamino)-1,6-naphthyridin-3-yl)phenyl)urea hydrochloride] was tested, and the IC50 [1] was 2 to 96 nM, the “IC50 shift A375 to A375res” value (A375res cells [2]) was 0.5-4.9 fold and the IC50 (A375res cells [3]) was 9 to 504 nM.
`CNc1cc2nc(C)c(-c3cc(NC(=O)NCCC(C)(C)C)c(F)cc3C)cc2cn1` [Example 17, 1-(3,3-dimethylbutyl)-3-(2-fluoro-4-methyl-5-(2-methyl-7-(methylamino)-1,6-naphthyridin-3-yl)phenyl)urea] was tested, and the inhibition in vivo at 20 mg/kg [4] was 89%, the “IC50 shift A375 to A375res” value (A375res cells [2]) was 0.5-4.9 fold and the IC50 (A375res cells [3]) was 9 to 504 nM.
For `CNc1cc2nc(C)c(-c3cc(NC(=O)NC4CCC(F)(F)CC4)c(F)cc3F)cc2cn1` [Example 88, 1-(2,4-difluoro-5-(2-methyl-7-(methylamino)-1,6-naphthyridin-3-yl)phenyl)-3-(4,4-difluorocyclohexyl)urea hydrochloride], the IC50 [1] was 2 to 96 nM, the “IC50 shift A375 to A375res” value (A375res cells [2]) was 0.5-4.9 fold and the IC50 (A375res cells [3]) was 9 to 504 nM.
`CNc1cc2nc(C)c(-c3cc(NC(=O)NC4CC(C)(C)C4)c(F)cc3F)cc2cn1` [Example 78, 1-(2,4-difluoro-5-(2-methyl-7-(methylamino)-1,6-naphthyridin-3-yl)phenyl)-3-(3,3-dimethylcyclobutyl)urea hydrochloride] was tested, and the inhibition in vivo at 20 mg/kg [4] was 68%.
For `CNc1cc2ncc(-c3cc(NC(=O)NCCC(C)(C)F)c(F)cc3C)cc2cn1` [Example 93, 1-(3-fluoro-3-methylbutyl)-3-(2-fluoro-4-methyl-5-(7-(methylamino)-1,6-naphthyridin-3-yl)phenyl)urea], the IC50 [1] was 2 to 96 nM, the “IC50 shift A375 to A375res” value (A375res cells [2]) was 0.5-4.9 fold and the IC50 (A375res cells [3]) was 9 to 504 nM.
`Cc1cc(F)c(NC(=O)NCCC2(C(F)(F)F)CC2)cc1-c1cc2cnc(N)cc2nc1C` [Example 83, 1-(5-(7-amino-2-methyl-1,6-naphthyridin-3-yl)-2-fluoro-4-methylphenyl)-3-(2-(1-(trifluoromethyl)cyclopropyl)ethyl)urea hydrochloride] was tested, and the IC50 [1] was 2 to 96 nM, the “IC50 shift A375 to A375res” value (A375res cells [2]) was 0.5-4.9 fold and the IC50 (A375res cells [3]) was 9 to 504 nM.
`CNc1cc2nc(C)c(-c3cc(NC(=O)NCC(O)C(C)(C)C)c(F)cc3C)cc2cn1` (stereo not drawn) [Example 55, 1-(2-fluoro-4-methyl-5-(2-methyl-7-(methylamino)-1,6-naphthyridin-3-yl)phenyl)-3-(2-hydroxy-3,3-dimethylbutyl)urea] was tested, and the IC50 [1] was 2 to 96 nM, the “IC50 shift A375 to A375res” value (A375res cells [2]) was 0.5-4.9 fold and the IC50 (A375res cells [3]) was 9 to 504 nM.
Molecule `CC(=O)Nc1cc2nc(C)c(-c3cc(NC(=O)NCCC(C)(C)C)c(F)cc3F)cc2cn1` [Example 105, N-(3-(5-(3-(3,3-dimethylbutyl)ureido)-2,4-difluorophenyl)-2-methyl-1,6-naphthyridin-7-yl)acetamide] has an inhibition in vivo at 20 mg/kg [4] of 87%.
With `CNc1cc2nc(C)c(-c3cc(NC(=O)NCCC(C)C)c(F)cc3C)cc2cn1` [Example 45, 1-(2-fluoro-4-methyl-5-(2-methyl-7-(methylamino)-1,6-naphthyridin-3-yl)phenyl)-3-isopentylurea] the IC50 [1] was 2 to 96 nM, the “IC50 shift A375 to A375res” value (A375res cells [2]) was 0.5-4.9 fold and the IC50 (A375res cells [3]) was 9 to 504 nM.
For `CNc1cc2nc(C)c(-c3cc(NC(=O)NCCC4CC4)c(F)cc3C)cc2cn1` [Example 84, 1-(2-cyclopropylethyl)-3-(2-fluoro-4-methyl-5-(2-methyl-7-(methylamino)-1,6-naphthyridin-3-yl)phenyl)urea hydrochloride], the IC50 [1] was 2 to 96 nM, the “IC50 shift A375 to A375res” value (A375res cells [2]) was 0.5-4.9 fold and the IC50 (A375res cells [3]) was 9 to 504 nM.
`CNc1cc2nc(C)c(-c3cc(NC(=O)NCCC(C)(C)OC)c(F)cc3F)cc2cn1` [Example 24, 1-(2,4-difluoro-5-(2-methyl-7 (methylamino)-1,6-naphthyridin-3-yl)phenyl)-3-(3-methoxy-3-methylbutyl)urea hydrochloride] was tested, and the IC50 [1] was 2 to 96 nM, the inhibition in vivo at 20 mg/kg [4] was 45% and the IC50 (A375res cells [3]) was 9 to 504 nM.
With `CNc1cc2nc(C)c(-c3cc(NC(=O)NCC4CC(C)(C)C4)c(F)cc3F)cc2cn1` [Example 13, 1-(2,4-difluoro-5-(2-methyl-7-(methylamino)-1,6-naphthyridin-3-yl)phenyl)-3-((3,3-dimethylcyclobutyl)methyl)urea hydrochloride] the IC50 [1] was 2 to 96 nM, the “IC50 shift A375 to A375res” value (A375res cells [2]) was 0.5-4.9 fold and the IC50 (A375res cells [3]) was 9 to 504 nM.
`CNc1cc2nc(C)c(-c3cc(NC(=O)NCCC4(C)CC4)c(F)cc3F)cc2cn1` [Example 94, 1-(2,4-difluoro-5-(2-methyl-7-(methylamino)-1,6-naphthyridin-3-yl)phenyl)-3-(2-(1-methylcyclopropyl)ethyl)urea hydrochloride] was tested, and the IC50 [1] was 2 to 96 nM, the “IC50 shift A375 to A375res” value (A375res cells [2]) was 0.5-4.9 fold and the IC50 (A375res cells [3]) was 9 to 504 nM.
`CNc1cc2nc(C)c(-c3cc(NC(=O)NC[C@@H](O)C(C)C)c(F)cc3C)cc2cn1` [Example 75, (S)-1-(2-fluoro-4-methyl-5-(2-methyl-7-(methylamino)-1,6-naphthyridin-3-yl)phenyl)-3-(2-hydroxy-3-methylbutyl)urea] was tested, and the inhibition in vivo at 20 mg/kg [4] was 89%.
For `Cc1cc(F)c(NC(=O)NCCC(C)(C)C)cc1-c1cc2cnc(NCCO)cc2nc1C` [Example 64, 1-(3,3-dimethylbutyl)-3-(2-fluoro-5-(7-((2-hydroxyethyl)amino)-2-methyl-1,6-naphthyridin-3-yl)-4-methylphenyl)urea], the IC50 [1] was 2 to 96 nM and the inhibition in vivo at 20 mg/kg [4] was 79%.
`CC(=O)Nc1cc2nc(C)c(-c3ccc(F)c(NC(=O)NCCC(C)(C)C)c3)cc2cn1` [Example 103, N-(3-(3-(3-(3,3-dimethylbutyl)ureido)-4-fluorophenyl)-2-methyl-1,6-naphthyridin-7-yl)acetamide] gave an inhibition in vivo at 20 mg/kg [4] of 90%.
In the case of `CC(=O)Nc1cc2nc(C)c(-c3cc(NC(=O)NCCC(C)(C)C#N)c(F)cc3F)cc2cn1` [Example 43, N-(3-(5-(3-(3-cyano-3-methylbutyl)ureido)-2,4-difluorophenyl)-2-methyl-1,6-naphthyridin-7-yl)acetamide], the inhibition in vivo at 20 mg/kg [4] is reported as 55%.
In the case of `CNc1cc2nc(C)c(-c3cc(NC(=O)NC[C@@H](O)C(C)(C)C)c(F)cc3C)cc2cn1` [Example 56, (S)-1-(2-fluoro-4-methyl-5-(2-methyl-7-(methylamino)-1,6-naphthyridin-3-yl)phenyl)-3-(2-hydroxy-3,3-dimethylbutyl)urea], the IC50 [1] is reported as 2 to 96 nM and the inhibition in vivo at 6 mg/kg ([4]; A-375, 6 mg/kg oral) is reported as 75%.

— US9187474B2, “Raf inhibitor compounds” (Deciphera Pharmaceuticals, LLC, priority 2012, dated 2015)
